From patent US20110166105A1, “ANTIMICROBIAL WASH AND CARRIER SOLUTIONS AND USES THEREOF” (TEVA ANIMAL HEALTH, INC., priority 2002, published 2011)

Test: Antimicrobial preservative effectiveness (APE), USP 25 test 51
Format: cell-based
Details: pH 8.5
Method: Various concentrations of benzyl alcohol were tested for antimicrobial preservative effectiveness (APE) using the USP 25 test 51 (U.S. Pharmacopeia 25, U.S. Pharmacopeia, MD (2001)). The formulations below are based on the formulation designated as 940-16 C (with a slightly higher pH) in Example 2 above with varying benzyl alcohol concentrations. The table below summarizes the results of these studies. Antimicrobial activity can be measured by any standard assay known to those of skill in the art (e.g., USP 25 antimicrobial preservative effectiveness (APE) test 51 (U.S. Pharmacopeia 25, U.S. Pharmacopeia, MD (2001)).

With `OCc1ccccc1` [benzyl alcohol] the “USP antimicrobial preservative requirement” value was “meets the USP antimicrobial preservative requirement”.
